Source: the NIST ThermoML archive (doi:10.1016/j.jct.2008.12.015)
Numbers after ± are expanded uncertainties.

Experiments:
[1] = Crystal; for mass density: 298.15 K, 101.33 kPa; for Normal melting temperature: DTA
[2] = molar enthalpy of vaporization or sublimation; details: Static calorimetry

Row | mass density [1] | Normal melting temperature [1] | molar enthalpy ([2]; 399.15 K, Crystal) | molar enthalpy ([2]; 322.65 K, Crystal) | molar enthalpy ([2]; 334 K, Liquid) | SMILES
1 | 950 kg/m3 | 127.7 ± 0.4 °C | 23.8 ± 0.406 kcal/mol |  |  | CC(C)(C)c1ccc(-c2ccc(C(C)(C)C)cc2)cc1 [4,4'-bis(1,1-dimethylethyl)-1,1'-biphenyl]
2 | 1030 kg/m3 | 51.6 ± 0.4 °C |  | 23.3 ± 0.382 kcal/mol | 18.4 ± 0.206 kcal/mol | CC(C)(C)c1ccc(-c2ccccc2)cc1 [4-(1,1-dimethylethyl)-1,1'-biphenyl]
